Laboratory results taken from patent publication US20140193827A1 (TEVA PHARMACEUTICAL INDUSTRIES, LTD., priority 2013, published 2014).

Tested on: GA-primed murine splenocytes
Assay: Tolerance method for assessing process variability

glatiramer acetate [GA]
AVG expression D8ERTD82E (probe ILMN_2731237): 8.974
AVG expression MYO1F (probe ILMN_2731760): 8.593
AVG expression CDC42EP3 (probe ILMN_2733185): 8.258
AVG expression TLR2 (probe ILMN_2733733): 8.191
AVG expression IL4I1 (probe ILMN_2733778): 13.39
AVG expression CD1D1 (probe ILMN_2734212): 8.262
AVG expression RAMP1 (probe ILMN_2734391): 7.212
AVG expression ISG20 (probe ILMN_2735615): 8.139
AVG expression IL4RA (probe ILMN_2738433): 6.897
AVG expression PDE2A (probe ILMN_2740407): 6.704
AVG expression NDRG3 (probe ILMN_2740628): 7.26
AVG expression IL17F (probe ILMN_2741201): 9.282
AVG expression NUPR1 (probe ILMN_2742042): 7.513
AVG expression CSRP3 (probe ILMN_2742068): 7.26
AVG expression SERPINA3F (probe ILMN_2742861): 9.63
AVG expression MATK (probe ILMN_2743902): 6.954
AVG expression GADD45G (probe ILMN_2744890): 10.65
AVG expression DOCK10 (probe ILMN_2749063): 7.866
AVG expression CSF2 (probe ILMN_2749412): 7.94
AVG expression SPATA13 (probe ILMN_2751037): 10.49
AVG expression 4931429111RIK (probe ILMN_2751111): 6.944
AVG expression PHXR4 (probe ILMN_2751603): 8.973
AVG expression 2210010N04RIK (probe ILMN_2752436): 7.364
AVG expression TGTP (probe ILMN_2754158): 7.894
AVG expression LTF (probe ILMN_2754364): 8.257
AVG expression CD84 (probe ILMN_2754698): 9.661
AVG expression FFAR2 (probe ILMN_2756046): 9.337
AVG expression D7BWG0611E (probe ILMN_2756438): 6.424
AVG expression ENO3 (probe ILMN_2757569): 8.71
AVG expression BC031353 (probe ILMN_2757807): 9.011
AVG expression PRTN3 (probe ILMN_2758029): 6.472
AVG expression SYPL (probe ILMN_2758720): 11.58
AVG expression TMEM66 (probe ILMN_2758878): 8.06
AVG expression CLIC4 (probe ILMN_2761109): 11.63
AVG expression LOC100041103 (probe ILMN_2761720): 7.612
AVG expression TBX21 (probe ILMN_2762983): 8.48
AVG expression BC032203 (probe ILMN_2763739): 10.17
AVG expression ASB2 (probe ILMN_2765759): 8.795
AVG expression CAMP (probe ILMN_2766604): 8.176
AVG expression OCIAD2 (probe ILMN_2766875): 6.716
AVG expression ATP1B1 (probe ILMN_2767615): 7.592
AVG expression IFI30 (probe ILMN_2767918): 10.97
AVG expression PIK3IP1 (probe ILMN_2769772): 7.746
AVG expression TIMP1 (probe ILMN_2769918): 6.577
AVG expression LOC100044439 (probe ILMN_2770066): 9.229
AVG expression IGH-VJ558 (probe ILMN_2772264): 10.58
AVG expression GLIPR2 (probe ILMN_2773900): 10.63
AVG expression HSD11B1 (probe ILMN_2774160): 8.176
AVG expression STFA1 (probe ILMN_2774410): 8.3801
AVG expression HIST1H1C (probe ILMN_2774537): 8.165
AVG expression SPO11 (probe ILMN_2777019): 6.908
AVG expression GCAT (probe ILMN_2777696): 8.955
AVG expression H2-DMA (probe ILMN_2777769): 12.53
AVG expression LTA (probe ILMN_2780247): 8.582
AVG expression CSRP3 (probe ILMN_2789650): 7.602
AVG expression CD177 (probe ILMN_2789900): 6.628
AVG expression IFNG (probe ILMN_2791459): 9.711
AVG expression RFTN2 (probe ILMN_2795178): 7.218
AVG expression IL12RB1 (probe ILMN_2799452): 7.405
AVG expression S100A9 (probe ILMN_2803674): 11.05
AVG expression TMEM108 (probe ILMN_2804559): 7.473
AVG expression PRM1 (probe ILMN_2806549): 6.894
AVG expression ACOT7 (probe ILMN_2807084): 9.352
AVG expression 3110001A13RIK (probe ILMN_2807335): 8.958
AVG expression PPIC (probe ILMN_2810882): 8.651
AVG expression LBH (probe ILMN_2816180): 11.09
AVG expression CPNE4 (probe ILMN_2818246): 7.052
AVG expression DUSP10 (probe ILMN_2818964): 8.287
AVG expression SC4MOL (probe ILMN_2823778): 9.801
AVG expression USP28 (probe ILMN_2828768): 7.665
AVG expression C330023M02RIK (probe ILMN_2833243): 9.988
AVG expression C330023M02RIK (probe ILMN_2833248): 8.672
AVG expression BRWD1 (probe ILMN_2834573): 7.683
AVG expression EG634650 (probe ILMN_2837493): 6.736
AVG expression ACTN1 (probe ILMN_2844996): 9.845
AVG expression PSAP (probe ILMN_2845080): 11.88
AVG expression KLHDC2 (probe ILMN_2845272): 12.06
AVG expression ACTB (probe ILMN_2846865): 9.645
AVG expression HIF1A (probe ILMN_2852034): 7.906
AVG expression TSPAN32 (probe ILMN_2852672): 9.543
AVG expression HIST1H1C (probe ILMN_2855315): 8.506
AVG expression GPR114 (probe ILMN_2856926): 9.59
AVG expression GBP6 (probe ILMN_2860645): 9.559
AVG expression GBP6 (probe ILMN_2860649): 8.264
AVG expression RHOD (probe ILMN_2862379): 6.304
AVG expression FCER1A (probe ILMN_2863390): 7.15
AVG expression OTTMUSG00000000971 (probe ILMN_2864309): 7.999
AVG expression CD83 (probe ILMN_2865016): 12.24
AVG expression GLDC (probe ILMN_2873750): 6.771
AVG expression LYZ (probe ILMN_2878071): 10.5
AVG expression TMEM66 (probe ILMN_2881296): 9.558
AVG expression LRRK2 (probe ILMN_2883267): 9.942
AVG expression PIRA3 (probe ILMN_2883326): 7.604
AVG expression CCR5 (probe ILMN_2888191): 7.88
AVG expression NSG2 (probe ILMN_2890515): 6.466
AVG expression RGS1 (probe ILMN_2897891): 8.707
AVG expression ATP2A3 (probe ILMN_2900462): 10.34
AVG expression GM484 (probe ILMN_2903169): 7.045
AVG expression GADD45G (probe ILMN_2903945): 12.68
AVG expression ICOS (probe ILMN_2906430): 9.445
AVG expression FCGRT (probe ILMN_2917497): 7.496
AVG expression SCD2 (probe ILMN_2919259): 7.493
AVG expression SLC25A1 (probe ILMN_2919263): 9.787
AVG expression OSM (probe ILMN_2919411): 9.631
AVG expression CASP6 (probe ILMN_2923865): 9.522
AVG expression MPO (probe ILMN_2925094): 6.333
AVG expression SIGLECH (probe ILMN_2928599): 6.936
AVG expression 9130211I03RIK (probe ILMN_2930552): 7.36
AVG expression IL4 (probe ILMN_2931334): 8.425
AVG expression TPI1 (probe ILMN_2932359): 11.19
AVG expression LYZS (probe ILMN_2939681): 6.97
AVG expression DGKA (probe ILMN_2940446): 10.5
AVG expression 4933439C20RIK (probe ILMN_2944601): 9.853
AVG expression HP (probe ILMN_2944824): 8.175
AVG expression RAgenericEF4 (probe ILMN_2945940): 7.203
AVG expression CBX7 (probe ILMN_2947234): 7.729
AVG expression ECM1 (probe ILMN_2947526): 10.05
AVG expression NOC4L (probe ILMN_2957862): 9.678
AVG expression CYP27A1 (probe ILMN_2960108): 6.166
AVG expression CYP27A1 (probe ILMN_2960114): 6.441
AVG expression H2-M2 (probe ILMN_2964185): 6.649
AVG expression CREM (probe ILMN_2964986): 7.2
AVG expression FXYD5 (probe ILMN_2967266): 11.61
AVG expression AMPD1 (probe ILMN_2971142): 6.076
AVG expression FCRLA (probe ILMN_2971171): 10.49
AVG expression BLK (probe ILMN_2976440): 10.05
AVG expression BLK (probe ILMN_2976441): 10.82
AVG expression MAN2A2 (probe ILMN_2977791): 6.779
AVG expression TMED8 (probe ILMN_2979248): 8.811
AVG expression D12ERTD553E (probe ILMN_2983525): 9.137
AVG expression EMP3 (probe ILMN_2984744): 11.52
AVG expression SLC15A3 (probe ILMN_2987709): 10.2
AVG expression STFA1 (probe ILMN_2988931): 7.963
AVG expression CLEC4N (probe ILMN_2993314): 7.76
AVG expression OBFC2A (probe ILMN_2996904): 7.798
AVG expression IL27RA (probe ILMN_3002095): 10.52
AVG expression UNC84B (probe ILMN_3004864): 10.87
AVG expression PPA1 (probe ILMN_3005441): 12.45
AVG expression ASNS (probe ILMN_3006123): 7.885
AVG expression MLKL (probe ILMN_3006767): 8.575
AVG expression ABHD14B (probe ILMN_3007862): 7.744
AVG expression FAM169B (probe ILMN_3014674): 10.41
AVG expression CYP4F18 (probe ILMN_3018445): 6.343
AVG expression KIF1B (probe ILMN_3034877): 7.209
AVG expression GBP2 (probe ILMN_3047389): 7.888
AVG expression GLIPR2 (probe ILMN_3053593): 11.06
AVG expression WARS (probe ILMN_3077377): 7.701
AVG expression AHNAK (probe ILMN_3079919): 7.509
AVG expression CYP4F18 (probe ILMN_3090207): 7.952
AVG expression PKIB (probe ILMN_3094853): 9.029
AVG expression TNFRSF9 (probe ILMN_3103746): 8.744
AVG expression TIMP1 (probe ILMN_3103896): 6.734
AVG expression CETN4 (probe ILMN_3105936): 7.334
AVG expression TXNIP (probe ILMN_3112873): 10.81
AVG expression HSD11B1 (probe ILMN_3115917): 8.516
AVG expression CHI3L3 (probe ILMN_3117876): 7.418
AVG expression LMNA (probe ILMN_3121891): 8.355
AVG expression GBP2 (probe ILMN_3122961): 13.72
AVG expression CD27 (probe ILMN_3128992): 10.96
AVG expression BC004728 (probe ILMN_3130403): 9.315
AVG expression BCAT1 (probe ILMN_3131478): 9.235
AVG expression USP18 (probe ILMN_3131679): 9.931
AVG expression YPEL3 (probe ILMN_3132898): 12.77
AVG expression ANXA3 (probe ILMN_3135781): 7.965
AVG expression SESN1 (probe ILMN_3136744): 9.838
AVG expression LIF (probe ILMN_3137287): 6.404
AVG expression LIF (probe ILMN_3137291): 6.545
AVG expression BTBD11 (probe ILMN_3139253): 6.574
AVG expression SEPP1 (probe ILMN_3141048): 6.844
AVG expression CXCL10 (probe ILMN_3142803): 8.707
AVG expression B3GNT8 (probe ILMN_3149776): 7.035
AVG expression NACC2 (probe ILMN_3153982): 7.11
AVG expression WARS (probe ILMN_3156343): 8.996
AVG expression SYTL3 (probe ILMN_3157081): 7.084
AVG expression PRR7 (probe ILMN_3162239): 7.209
